Laboratory results from paper PMC4581874 (PLoS ONE, 2015).

Experiments:
MAPK1 (h) = biological target: T1, MAPK1 (h) (Homo sapiens, UniProt P27361); experiment: Kinase profile, MAPK1; type: biochemical; details: mean ± S.D.
T1 construct: purchased Millipore (now Eurofins) KinaseProfiler / IC50 Profiler
Procedure: (§1) All kinase assays were carried out using KinaseProfiler^TM and IC50 Profiler^TM (Millipore UK Ltd., Dundee, UK. Now Eurofins Scientific, Dundee, UK). All IC50 data were presented as the mean values. The Curves obtained to determine IC50 values were shown in Supporting Information (S1 Fig).

LKB1 (h) = biological target: T2, LKB1 (h) (Homo sapiens, UniProt Q15831); experiment: Kinase profile, LKB1; type: biochemical; details: mean ± S.D.
T2 construct: purchased Millipore (now Eurofins) KinaseProfiler / IC50 Profiler
Procedure: as §1

CDK1/cyclin B (h) = biological target: T3, CDK1/cyclin B (h) (Homo sapiens, UniProt P06493); experiment: Kinase profile, CDK1/cyclin B; type: biochemical; details: mean ± S.D.
T3 construct: purchased Millipore (now Eurofins) KinaseProfiler / IC50 Profiler
Procedure: as §1

PKCι (h) = biological target: T4, PKCι (h) (Homo sapiens, UniProt P41743); experiment: Kinase profile, PKCι; type: biochemical; details: mean ± S.D.
T4 construct: purchased Millipore (now Eurofins) KinaseProfiler / IC50 Profiler
Procedure: as §1

MAPK2 (h) = biological target: T5, MAPK2 (h) (Homo sapiens, UniProt P28482); experiment: Kinase profile, MAPK2; type: biochemical; details: mean ± S.D.
T5 construct: purchased Millipore (now Eurofins) KinaseProfiler / IC50 Profiler
Procedure: as §1

PDGFRα = biological target: T6, PDGFRα (Homo sapiens, UniProt P16234); experiment: In vitro kinase assay, PDGFRα; type: biochemical
T6 construct: purchased Millipore UK Ltd., Dundee, UK (now Eurofins Scientific); KinaseProfiler / IC50 Profiler service
T6 sequence (P16234 24-1089): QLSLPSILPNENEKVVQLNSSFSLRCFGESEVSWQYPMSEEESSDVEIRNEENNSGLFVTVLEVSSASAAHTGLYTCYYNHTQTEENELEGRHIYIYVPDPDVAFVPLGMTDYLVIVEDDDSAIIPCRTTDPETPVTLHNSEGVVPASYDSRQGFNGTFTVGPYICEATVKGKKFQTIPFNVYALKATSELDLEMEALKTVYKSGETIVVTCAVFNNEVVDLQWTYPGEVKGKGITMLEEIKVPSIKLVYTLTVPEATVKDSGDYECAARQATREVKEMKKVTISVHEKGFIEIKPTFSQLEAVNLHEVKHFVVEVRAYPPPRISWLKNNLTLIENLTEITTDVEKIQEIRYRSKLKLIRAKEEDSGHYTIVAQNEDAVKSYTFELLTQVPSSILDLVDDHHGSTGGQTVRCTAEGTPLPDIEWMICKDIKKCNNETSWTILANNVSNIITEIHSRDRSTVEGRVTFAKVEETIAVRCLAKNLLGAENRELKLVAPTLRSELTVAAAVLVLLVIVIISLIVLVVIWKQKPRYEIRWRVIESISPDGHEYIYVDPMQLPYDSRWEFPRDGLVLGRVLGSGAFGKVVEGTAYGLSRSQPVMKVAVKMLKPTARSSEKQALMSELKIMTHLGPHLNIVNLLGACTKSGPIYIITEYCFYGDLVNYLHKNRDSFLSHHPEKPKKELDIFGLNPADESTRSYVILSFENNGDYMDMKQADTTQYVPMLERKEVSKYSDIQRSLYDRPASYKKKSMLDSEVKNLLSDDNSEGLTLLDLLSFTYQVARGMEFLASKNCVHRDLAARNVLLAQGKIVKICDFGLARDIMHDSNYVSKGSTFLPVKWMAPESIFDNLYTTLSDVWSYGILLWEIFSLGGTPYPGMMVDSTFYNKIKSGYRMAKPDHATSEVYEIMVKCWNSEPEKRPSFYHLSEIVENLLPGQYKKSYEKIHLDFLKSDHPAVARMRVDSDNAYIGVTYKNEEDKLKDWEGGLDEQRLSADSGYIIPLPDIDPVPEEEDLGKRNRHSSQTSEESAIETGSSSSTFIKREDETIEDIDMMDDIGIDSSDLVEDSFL
Procedure: as §1

SAPK2a (h) = biological target: T7, SAPK2a (h) (Homo sapiens, UniProt Q16539); experiment: Kinase profile, SAPK2a; type: biochemical; details: mean ± S.D.
T7 construct: purchased Millipore (now Eurofins) KinaseProfiler / IC50 Profiler
Procedure: as §1

GSK3β (h) = biological target: T8, GSK3β (h) (Homo sapiens, UniProt P49841); experiment: Kinase profile, GSK3β; type: biochemical; details: mean ± S.D.
T8 construct: purchased Millipore (now Eurofins) KinaseProfiler / IC50 Profiler
Procedure: as §1

VEGFR-1 = biological target: T9, VEGFR-1 (Homo sapiens, UniProt P17948); experiment: In vitro kinase assay, VEGFR-1; type: biochemical
T9 construct: purchased Millipore UK Ltd., Dundee, UK (now Eurofins Scientific); KinaseProfiler / IC50 Profiler service
T9 sequence (P17948 27-1338): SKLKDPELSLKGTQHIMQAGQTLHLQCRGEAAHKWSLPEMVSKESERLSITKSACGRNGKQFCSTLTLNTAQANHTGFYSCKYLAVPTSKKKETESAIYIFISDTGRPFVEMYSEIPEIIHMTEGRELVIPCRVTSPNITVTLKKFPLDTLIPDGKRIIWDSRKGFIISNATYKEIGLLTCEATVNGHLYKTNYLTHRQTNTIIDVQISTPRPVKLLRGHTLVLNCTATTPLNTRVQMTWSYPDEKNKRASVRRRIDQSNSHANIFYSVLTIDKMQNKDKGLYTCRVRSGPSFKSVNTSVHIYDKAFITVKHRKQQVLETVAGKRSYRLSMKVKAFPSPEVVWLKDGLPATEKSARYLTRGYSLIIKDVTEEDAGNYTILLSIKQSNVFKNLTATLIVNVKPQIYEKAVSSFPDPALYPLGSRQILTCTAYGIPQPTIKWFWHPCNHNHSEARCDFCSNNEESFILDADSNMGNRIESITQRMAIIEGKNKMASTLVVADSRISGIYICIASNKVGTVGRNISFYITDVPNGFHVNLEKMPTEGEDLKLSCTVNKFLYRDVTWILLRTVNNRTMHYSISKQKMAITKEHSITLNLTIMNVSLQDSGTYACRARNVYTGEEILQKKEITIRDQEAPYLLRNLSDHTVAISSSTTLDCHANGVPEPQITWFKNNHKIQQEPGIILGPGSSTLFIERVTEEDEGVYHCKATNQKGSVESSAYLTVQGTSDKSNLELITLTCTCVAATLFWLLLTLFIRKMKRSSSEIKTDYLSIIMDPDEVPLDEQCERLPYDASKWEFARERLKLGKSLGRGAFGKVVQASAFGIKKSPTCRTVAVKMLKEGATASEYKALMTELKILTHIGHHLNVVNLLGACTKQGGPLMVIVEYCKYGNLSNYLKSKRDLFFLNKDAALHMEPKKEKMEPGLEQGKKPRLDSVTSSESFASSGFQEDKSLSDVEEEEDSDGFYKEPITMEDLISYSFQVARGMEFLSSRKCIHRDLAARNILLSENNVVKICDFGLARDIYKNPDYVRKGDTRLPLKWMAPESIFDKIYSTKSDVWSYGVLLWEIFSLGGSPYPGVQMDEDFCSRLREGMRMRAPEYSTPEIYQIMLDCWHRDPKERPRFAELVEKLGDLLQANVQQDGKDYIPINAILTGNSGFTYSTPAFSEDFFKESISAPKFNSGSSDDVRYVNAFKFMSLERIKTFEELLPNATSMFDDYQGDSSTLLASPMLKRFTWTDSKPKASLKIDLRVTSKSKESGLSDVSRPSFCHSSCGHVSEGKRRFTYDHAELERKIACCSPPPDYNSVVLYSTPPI
Procedure: as §1

PKBβ (h) = biological target: T10, PKBβ (h) (Homo sapiens, UniProt P31751); experiment: Kinase profile, PKBβ; type: biochemical; details: mean ± S.D.
T10 construct: purchased Millipore (now Eurofins) KinaseProfiler / IC50 Profiler
Procedure: as §1

PKCγ (h) = biological target: T11, PKCγ (h) (Homo sapiens, UniProt P05129); experiment: Kinase profile, PKCγ; type: biochemical; details: mean ± S.D.
T11 construct: purchased Millipore (now Eurofins) KinaseProfiler / IC50 Profiler
Procedure: as §1

HUVECs = experiment: VEGF-induced endothelial proliferation assay; type: cell-based, human; details: VEGF 50 ng/mL, compound 1 μg/mL
Procedure: For the cell proliferation assays, cells were incubated overnight in endothelial basal media (EBM; Lonza, Walkersville, MD, USA) containing 0.5% FBS or supplemented with VEGF-A and/or VEGF inhibitors. The cells were washed with PBS and counted in 4 random microscope fields. The tube formation assay was performed by seeding cells on Matrigel-coated plates (BD Bioscience, Bedford, MA, USA) and incubating in EBM containing 0.5% FBS or supplemented with VEGF-A and/or VEGF inhibitors. After overnight incubation, tubule networks were quantified by measuring the tubule length in 4 random microscope fields. For the analysis of scratch wound migration, confluent cell monolayers grown on 6-well plates were scratched using a micropipette tip. After the plates were washed with PBS to remove dislodged cells and media, they were incubated with EBM containing 0.5% FBS or supplemented with VEGF and/or VEGF inhibitors for 8 hours. Cell migration was observed by optical microscopy and quantified by measuring the number of cells that had migrated from the wound edges.

PDGFRβ = biological target: T12, PDGFRβ (Homo sapiens, UniProt P09619); experiment: In vitro kinase assay, PDGFRβ; type: biochemical
T12 construct: purchased Millipore UK Ltd., Dundee, UK (now Eurofins Scientific); KinaseProfiler / IC50 Profiler service
T12 sequence (P09619 33-1106): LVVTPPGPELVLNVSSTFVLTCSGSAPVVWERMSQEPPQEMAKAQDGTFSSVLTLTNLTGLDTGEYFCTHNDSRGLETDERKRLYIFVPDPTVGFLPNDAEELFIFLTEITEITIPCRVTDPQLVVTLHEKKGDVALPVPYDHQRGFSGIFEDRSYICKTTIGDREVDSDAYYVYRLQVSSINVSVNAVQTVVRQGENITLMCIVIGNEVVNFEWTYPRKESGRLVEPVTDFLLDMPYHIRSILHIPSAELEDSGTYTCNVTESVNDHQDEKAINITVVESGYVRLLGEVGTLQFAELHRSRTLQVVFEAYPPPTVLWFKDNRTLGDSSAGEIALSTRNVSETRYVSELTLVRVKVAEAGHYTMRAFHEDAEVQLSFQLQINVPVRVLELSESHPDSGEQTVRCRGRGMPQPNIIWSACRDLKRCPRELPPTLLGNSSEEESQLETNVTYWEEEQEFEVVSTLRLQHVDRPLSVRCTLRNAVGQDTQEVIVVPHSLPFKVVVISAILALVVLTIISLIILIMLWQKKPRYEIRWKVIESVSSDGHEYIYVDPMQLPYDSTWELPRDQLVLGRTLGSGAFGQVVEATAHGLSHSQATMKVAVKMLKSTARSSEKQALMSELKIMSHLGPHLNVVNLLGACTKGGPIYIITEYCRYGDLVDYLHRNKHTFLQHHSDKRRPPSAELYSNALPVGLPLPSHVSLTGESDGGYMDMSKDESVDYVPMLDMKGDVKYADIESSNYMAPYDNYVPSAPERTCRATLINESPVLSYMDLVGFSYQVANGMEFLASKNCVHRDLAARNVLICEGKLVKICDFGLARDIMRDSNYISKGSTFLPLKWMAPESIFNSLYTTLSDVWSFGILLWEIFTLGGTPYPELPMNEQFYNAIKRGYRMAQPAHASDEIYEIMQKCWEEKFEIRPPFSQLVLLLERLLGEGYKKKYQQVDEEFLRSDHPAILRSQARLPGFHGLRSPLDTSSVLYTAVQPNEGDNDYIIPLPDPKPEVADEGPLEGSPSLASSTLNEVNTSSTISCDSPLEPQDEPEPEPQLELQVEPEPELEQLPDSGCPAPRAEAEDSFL
Procedure: as §1

CDK5/p35 (h) = biological target: T13, CDK5/p35 (h) (Homo sapiens, UniProt Q00535); experiment: Kinase profile, CDK5/p35; type: biochemical; details: mean ± S.D.
T13 construct: purchased Millipore (now Eurofins) KinaseProfiler / IC50 Profiler
Procedure: as §1

PKCμ (h) = biological target: T14, PKCμ (h) (Homo sapiens, UniProt Q15139); experiment: Kinase profile, PKCμ; type: biochemical; details: mean ± S.D.
T14 construct: purchased Millipore (now Eurofins) KinaseProfiler / IC50 Profiler
Procedure: as §1

EGFR (L858R) = biological target: T15, EGFR (L858R) (Homo sapiens, UniProt P00533, L858R); experiment: In vitro kinase assay, EGFR (L858R); type: biochemical
T15 construct: purchased Millipore UK Ltd., Dundee, UK (now Eurofins Scientific); KinaseProfiler / IC50 Profiler service
T15 sequence (P00533 25-1210 L858R): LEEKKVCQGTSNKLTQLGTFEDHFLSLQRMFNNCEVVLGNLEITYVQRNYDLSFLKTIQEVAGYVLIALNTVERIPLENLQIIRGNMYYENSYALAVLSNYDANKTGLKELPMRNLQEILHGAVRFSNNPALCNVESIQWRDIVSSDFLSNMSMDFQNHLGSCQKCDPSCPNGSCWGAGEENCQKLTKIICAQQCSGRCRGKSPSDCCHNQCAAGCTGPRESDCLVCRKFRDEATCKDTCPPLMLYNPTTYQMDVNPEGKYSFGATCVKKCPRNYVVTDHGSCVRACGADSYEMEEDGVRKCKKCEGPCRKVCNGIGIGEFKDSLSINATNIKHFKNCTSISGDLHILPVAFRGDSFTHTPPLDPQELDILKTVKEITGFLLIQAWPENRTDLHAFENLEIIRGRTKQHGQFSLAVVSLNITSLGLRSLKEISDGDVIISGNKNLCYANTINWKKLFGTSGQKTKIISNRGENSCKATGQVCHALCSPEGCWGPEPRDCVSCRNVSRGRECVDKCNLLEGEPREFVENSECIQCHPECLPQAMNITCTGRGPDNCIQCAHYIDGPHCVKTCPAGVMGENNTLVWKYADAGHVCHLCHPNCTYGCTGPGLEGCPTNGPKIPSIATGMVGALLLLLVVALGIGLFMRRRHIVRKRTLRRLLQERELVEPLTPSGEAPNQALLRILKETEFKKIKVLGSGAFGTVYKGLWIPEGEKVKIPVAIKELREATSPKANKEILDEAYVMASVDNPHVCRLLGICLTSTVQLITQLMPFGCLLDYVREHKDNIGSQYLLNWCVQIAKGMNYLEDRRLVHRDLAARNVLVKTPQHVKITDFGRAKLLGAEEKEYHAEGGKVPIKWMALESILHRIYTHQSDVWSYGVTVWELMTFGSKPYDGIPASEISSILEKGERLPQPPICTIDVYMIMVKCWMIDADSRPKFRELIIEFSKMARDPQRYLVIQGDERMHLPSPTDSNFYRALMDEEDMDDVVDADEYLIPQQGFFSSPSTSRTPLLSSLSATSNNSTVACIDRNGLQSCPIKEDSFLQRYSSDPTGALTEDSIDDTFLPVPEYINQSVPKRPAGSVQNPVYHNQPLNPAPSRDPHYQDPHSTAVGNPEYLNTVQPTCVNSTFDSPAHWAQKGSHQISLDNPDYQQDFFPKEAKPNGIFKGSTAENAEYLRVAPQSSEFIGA
Procedure: as §1

CaMKIIγ (h) = biological target: T16, CaMKIIγ (h) (Homo sapiens, UniProt Q13555); experiment: Kinase profile, CaMKIIγ; type: biochemical; details: mean ± S.D.
T16 construct: purchased Millipore (now Eurofins) KinaseProfiler / IC50 Profiler
Procedure: as §1

PKCδ (h) = biological target: T17, PKCδ (h) (Homo sapiens, UniProt Q05655); experiment: Kinase profile, PKCδ; type: biochemical; details: mean ± S.D.
T17 construct: purchased Millipore (now Eurofins) KinaseProfiler / IC50 Profiler
Procedure: as §1

PKCθ (h) = biological target: T18, PKCθ (h) (Homo sapiens, UniProt Q04759); experiment: Kinase profile, PKCθ; type: biochemical; details: mean ± S.D.
T18 construct: purchased Millipore (now Eurofins) KinaseProfiler / IC50 Profiler
Procedure: as §1

PKCα (h) = biological target: T19, PKCα (h) (Homo sapiens, UniProt P17252); experiment: Kinase profile, PKCα; type: biochemical; details: mean ± S.D.
T19 construct: purchased Millipore (now Eurofins) KinaseProfiler / IC50 Profiler
Procedure: as §1

PKG1α (h) = biological target: T20, PKG1α (h) (Homo sapiens, UniProt Q13976); experiment: Kinase profile, PKG1α; type: biochemical; details: mean ± S.D.
T20 construct: purchased Millipore (now Eurofins) KinaseProfiler / IC50 Profiler
Procedure: as §1

HCC827 cells = experiment: HCC827 cell viability assay; type: cell-based; details: Homo sapiens, 72 h, read-out: HCC827 IC50 (anti-proliferative activity)
Procedure: HCC827 cells were purchased from the American Type Culture Collection (ATCC, Manassas, VA, USA). […] Human umbilical vein endothelial cells (HUVECs, ScienCell Research Laboratories, Carlsbad, CA, USA) were cultured in endothelial growth medium-2 (EGM-2; Lonza, Walkersville, MD, USA) from passages 3 to 6.
After a 24-hour incubation, the cells were treated with a series of test compound dilutions for 72 hours. Cell viability was assessed using EZ-Cytox (Daeil Lab Service, Seoul, South Korea) according to the manufacturer’s instructions.
Cells were incubated for 72 h with a range of concentrations of MKP101, and cell viability was measured using the WST-1 assay. […] Western blot analysis using antibodies to phosphorylated and total EGFR from a representative experiment is shown. Cells were incubated for 3 h at the indicated concentration. (C) Graph showing the relative intensities of the total and phosphorylated EGFR as determined by band densitometry. IC50, half-maximal inhibitory concentration.

CDK9/cyclin T1 (h) = biological target: T21, CDK9/cyclin T1 (h) (Homo sapiens, UniProt P50750); experiment: Kinase profile, CDK9/cyclin T1; type: biochemical; details: mean ± S.D.
T21 construct: purchased Millipore (now Eurofins) KinaseProfiler / IC50 Profiler
Procedure: as §1

IR (h) = biological target: T22, IR (h) (Homo sapiens, UniProt P06213); experiment: Kinase profile, IR; type: biochemical; details: mean ± S.D.
T22 construct: purchased Millipore (now Eurofins) KinaseProfiler / IC50 Profiler
Procedure: as §1

CDK5/p25 (h) = biological target: T23, CDK5/p25 (h) (Homo sapiens, UniProt Q00535); experiment: Kinase profile, CDK5/p25; type: biochemical; details: mean ± S.D.
T23 construct: purchased Millipore (now Eurofins) KinaseProfiler / IC50 Profiler
Procedure: as §1

PKCε (h) = biological target: T24, PKCε (h) (Homo sapiens, UniProt Q02156); experiment: Kinase profile, PKCε; type: biochemical; details: mean ± S.D.
T24 construct: purchased Millipore (now Eurofins) KinaseProfiler / IC50 Profiler
Procedure: as §1

T1 sequence (P27361 whole entry): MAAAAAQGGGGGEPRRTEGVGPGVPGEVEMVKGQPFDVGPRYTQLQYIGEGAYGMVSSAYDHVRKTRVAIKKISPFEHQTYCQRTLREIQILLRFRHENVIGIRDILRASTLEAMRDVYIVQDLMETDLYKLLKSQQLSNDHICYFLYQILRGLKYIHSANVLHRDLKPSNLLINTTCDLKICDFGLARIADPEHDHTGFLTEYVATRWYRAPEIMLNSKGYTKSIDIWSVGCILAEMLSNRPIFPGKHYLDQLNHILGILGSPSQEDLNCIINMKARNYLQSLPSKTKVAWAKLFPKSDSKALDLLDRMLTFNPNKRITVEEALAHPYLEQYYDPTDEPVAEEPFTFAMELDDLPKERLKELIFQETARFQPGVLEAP

SMILES: Cc1ccc(Nc2nccc(N(C)c3ccc4[nH]ccc4c3)n2)cc1S(N)(=O)=O [MKP101]
- inhibition at 1 µM (MAPK1 (h)): 4 ± 5%
- inhibition at 1 µM (LKB1 (h)): 0%
- inhibition at 1 µM (CDK1/cyclin B (h)): 18 ± 8%
- inhibition at 1 µM (PKCι (h)): 5 ± 6%
- inhibition at 1 µM (MAPK2 (h)): 0%
- inhibition at 1 µM (PDGFRα; 1 μM, mean ± S.D., read-out: % inhibition at 1 μM, PDGFRα (h)): 93%
- IC50 (PDGFRα; in vitro kinase assay): 162 nM
- inhibition at 1 µM (SAPK2a (h)): 82 ± 2%
- inhibition at 1 µM (GSK3β (h)): 18 ± 4%
- inhibition at 1 µM (VEGFR-1; 1 μM, mean ± S.D., read-out: % inhibition at 1 μM, VEGFR-1 (h)): 99%
- IC50 (VEGFR-1; in vitro kinase assay): 3 nM
- inhibition at 1 µM (PKBβ (h)): 14 ± 4%
- inhibition at 1 µM (PKCγ (h)): 12 ± 2%
- Effect on VEGF-induced increase in endothelial proliferation (HUVECs): significantly inhibited
- inhibition at 1 µM (PDGFRβ; 1 μM, mean ± S.D., read-out: % inhibition at 1 μM, PDGFRβ (h)): 95 ± 1%
- IC50 (PDGFRβ; in vitro kinase assay): 70 nM
- inhibition at 1 µM (CDK5/p35 (h)): 38 ± 3%
- inhibition at 1 µM (PKCμ (h)): 7 ± 1%
- inhibition at 1 µM (EGFR (L858R); 1 μM, mean ± S.D., read-out: % inhibition at 1 μM, EGFR(L858R)(h)): 96 ± 1%
- IC50 (EGFR (L858R); in vitro kinase assay, mean values): 17 nM
- inhibition at 1 µM (CaMKIIγ (h)): 37 ± 2%
- inhibition at 1 µM (PKCδ (h)): 0%
- inhibition at 1 µM (PKCθ (h)): 16 ± 2%
- inhibition at 1 µM (PKCα (h)): 10 ± 1%
- inhibition at 1 µM (PKG1α (h)): 0%
- IC50 (HCC827 cells): 160 nM
- inhibition at 1 µM (CDK9/cyclin T1 (h)): 54 ± 4%
- inhibition at 1 µM (IR (h)): 14 ± 3%
- inhibition at 1 µM (CDK5/p25 (h)): 47 ± 2%
- inhibition at 1 µM (PKCε (h)): 2 ± 3%
